Usually IC50 stands for the concentration needed to halve the response being measured. Lower therefore signals inhibition by little substance.

Experimental findings from US10975063B2, “Compound, and production method thereof, and methods of treatment using the compound” (ABIVAX, priority 2009, dated 2021) are described below.

The test system of one test is HIV-1. Put plainly: Inhibition of HIV-1 production (p24 antigen) in infected peripheral blood mononuclear cells (PBMCs). In kind it is cell-based, HIV-1 (AdaM) in PBMCs of healthy donors. The settings on record: Human immunodeficiency virus 1, PBMC; p24 production in HIV infected PBMCs; dose response curves. As to the method: Within this framework, the peripheral blood mononuclear cells (PBMCs) of healthy donors are isolated by centrifugation on a FICOLL gradient. The cells are then cultivated to a density of 2.5×10^6 cells/ml with RPMI medium supplemented with 1% inactivated human AB serum, then incubated at 37° C., 5% CO2 for an additional hour. The peripheral blood mononuclear cells are then recovered and cultivated for two days in RPMI medium supplemented with 10% fetal calf serum.
A standard experiment using 96 plates to test 30 molecules in triplicates including positive and negative controls, is performed as follows:
50 10^6 Ficoll purified PBMCs (10% DMSO 90% FCS) are washed with RPMI 10% FCS and resuspended in 25 ml of RPMI 10% FCS, glutamax containing 1000 U/ml of IL2 and 5 μg/ml PHA. The cells are then incubated for 3 days at 37° C. before to be washed with 50 ml PBS then with 50 ml RPMI 10% FCS. The cells are resuspended in 100 μl of RPMI 10% FCS containing 100 U/ml IL2 and seeded in 96 wells (1.5 10^5 cells/well). Viral infection is performed with 1 ng of AdaM/well. 100 μl of tested molecules at concentration of 10 μM are added to each well. Virus production is determined by p24 antigen immunosorbent assays after 3 and 6 days of infection (Kit Innogenetics). Typically PBMCs are prepared from several healthy donors (around 11 different donors). Dose response curves were then established with selected compounds to determine IC50.
In turn, `Cc1ccnc(Nc2ccc3cccc(Cl)c3n2)c1` [Compound 6, (8-Chloro-quinolin-2-yl)-(4-methyl-pyridin-2-yl)-amine] yielded an IC50 of 100 pM.

Compound `COc1ccc(Nc2ccc3cccc(Cl)c3n2)cc1` [Compound 77, 8-chloro-N-(4-methoxyphenyl)quinolin-2-amine] returned an IC50 of 50 pM.

In the case of `Clc1cccc2ccc(Nc3cnccn3)nc12` [Compound 112, 8-chloro-N-(pyrazin-2-yl)quinolin-2-amine], the 50% inhibitory concentration (IC50) was found to be 100 pM. Compared with the last compound, the IC50 is about 2-fold higher.

In turn, `Cc1cc2ccccc2nc1Nc1ccc(OC(F)(F)F)cc1` [Compound 80, 3-methyl-N-[4-(trifluoromethoxy)phenyl]quinolin-2-amine] showed an IC50 of 1000 pM. This IC50 lies about 10-fold higher than the previous one.

The compound `FC(F)(F)Oc1ccc(Nc2ccc3cccc(Cl)c3n2)cc1` [Compound 90, 8-chloro-N-[4-(trifluoromethoxy)phenyl]quinolin-2-amine] had an IC50 of 100 pM. This IC50 is about 10-fold lower than that of the compound before.

Turning to `Fc1ccc(Nc2ccc3cccc(Cl)c3n2)nc1` [Compound 43, 8-chloro-N-(5-fluoropyridin-2-yl)quinolin-2-amine], the IC50 amounted to 100 pM.

The test is the same for the next values; noted with them: tested molecules at 10 μM; p24 after 3 and 6 days of infection; number of donors with inhibition out of donors tested.
Turning to `Fc1ccc(Nc2ccc3cc(Cl)ccc3n2)nc1` [Compound 71, 6-chloro-N-(5-fluoropyridin-2-yl)quinolin-2-amine], the “Inhibition of p24 production in HIV infected PBMCs from different donors” value (“Inhibition … from different donors” below) is recorded as 4 out of 4 donnors.

For the compound `Cc1cccc(Nc2nc3ccccc3cc2C)n1` [Compound 46, 3-methyl-N-(6-methylpyridin-2-yl)quinolin-2-amine], the “Inhibition … from different donors” value is 4 out of 4 donnors.

On to `COc1ccc(Nc2ccc3cccc(Cl)c3n2)cc1` [Compound 77, 8-chloro-N-(4-methoxyphenyl)quinolin-2-amine], for which the “Inhibition … from different donors” value is 11 out of 13 donnors.

For the compound `Cc1cc2ccccc2nc1Nc1ccc(F)cn1` [Compound 73, N-(5-fluoropyridin-2-yl)-3-methylquinolin-2-amine], the “Inhibition … from different donors” value is 4 out of 4 donnors.

With `FC(F)(F)c1ccnc(Nc2ccc3cccc(Cl)c3n2)c1` [Compound 68, 8-chloro-N-[4-(trifluoromethyl)pyridin-2-yl]quinolin-2-amine], the “Inhibition … from different donors” value is on record as 4 out of 4 donnors.

As to `Clc1cccc2ccc(Nc3cnccn3)nc12` [Compound 112, 8-chloro-N-(pyrazin-2-yl)quinolin-2-amine], the “Inhibition … from different donors” value is given as 12 out of 13 donnors.

`Cc1cc2ccccc2nc1Nc1ccc(OC(F)(F)F)cc1` [Compound 80, 3-methyl-N-[4-(trifluoromethoxy)phenyl]quinolin-2-amine]: the “Inhibition … from different donors” value was 7 out of 8 donnors.

In the case of `Cc1cc(Nc2ccc(OC(F)(F)F)cc2)nc2ccccc12` [Compound 78, 4-methyl-N-[4-(trifluoromethoxy)phenyl]quinolin-2-amine], the “Inhibition … from different donors” value is listed as 7 out of 8 donnors.

In the case of `Cc1cc2ccccc2nc1Nc1ccc(N(C)C)cc1` [Compound 81, 1-N,1-N-dimethyl-4-N-(3-methylquinolin-2-yl)benzene-1,4-diamine], the “Inhibition … from different donors” value was 4 out of 4 donnors.

For `FC(F)(F)Oc1ccc(Nc2ccc3cccc(Cl)c3n2)cc1Cl` [Compound 104, 8-chloro-N-[3-chloro-4-(trifluoromethoxy)phenyl]quinolin-2-amine], the “Inhibition … from different donors” value is 4 out of 4 donnors.

Turning to `Oc1cccnc1Nc1ccc2cccc(Cl)c2n1` [Compound 69, 2-[(8-chloroquinolin-2-yl)amino]pyridin-3-ol], the “Inhibition … from different donors” value was 4 out of 4 donnors.

For `Fc1cccc(Nc2ccc3cccc(Cl)c3n2)c1` [Compound 88, 8-chloro-N-(3-fluorophenyl)quinolin-2-amine], the “Inhibition … from different donors” value is reported as 4 out of 4 donnors.

For the compound `Cc1ccnc(Nc2ccc3c([N+](=O)[O-])cccc3n2)c1` [Compound 64, N-(4-methylpyridin-2-yl)-5-nitroquinolin-2-amine], the “Inhibition … from different donors” value was 5 out of 5 donnors.

Take `FC(F)(F)Oc1ccc(Nc2ccc3cccc(Cl)c3n2)cc1` [Compound 90, 8-chloro-N-[4-(trifluoromethoxy)phenyl]quinolin-2-amine]: the “Inhibition … from different donors” value was 8 out of 10 donnors.

In the case of `FC(F)(F)c1cccc(Nc2ccc3cccc(Cl)c3n2)n1` [Compound 70, 8-chloro-N-[6-(trifluoromethyl)pyridin-2-yl]quinolin-2-amine], the “Inhibition … from different donors” value is 4 out of 4 donnors.

As to `Cc1cc2ccccc2nc1Nc1cccc(OC(F)(F)F)c1` [Compound 92, 3-methyl-N-[3-(trifluoromethoxy)phenyl]quinolin-2-amine], the “Inhibition … from different donors” value is recorded as 3 out of 5 donnors.

On to `FC(F)(F)Oc1cccc(Nc2ccc3cccc(Cl)c3n2)c1` [Compound 87, 8-chloro-N-[3-(trifluoromethoxy)phenyl]quinolin-2-amine], for which the “Inhibition … from different donors” value is given as 4 out of 4 donnors.

For the compound `Fc1ccc(Nc2ccc3cccc(Cl)c3n2)nc1` [Compound 43, 8-chloro-N-(5-fluoropyridin-2-yl)quinolin-2-amine], the “Inhibition … from different donors” value was 8 out of 10 donnors.

In the case of `CCc1cccc(Nc2nc3ccccc3cc2C)n1` [Compound 72, N-(6-ethylpyridin-2-yl)-3-methylquinolin-2-amine], the “Inhibition … from different donors” value was 4 out of 4 donnors.

Consider `FC(F)(F)Oc1ccc(Nc2ccc3cc(Cl)ccc3n2)cc1` [Compound 96, 6-chloro-N-(4-(trifluoromethoxy)phenyl)quinolin-2-amine], for which the “Inhibition … from different donors” value was 5 out of 6 donnors.

On to `Cc1c(Cl)cnc(Nc2cnc3ccccc3n2)c1Cl` [Compound 140, N-(3,5-dichloro-4-methylpyridin-2-yl)quinoxalin-2-amine], for which the “Inhibition … from different donors” value is 4 out of 4 donnors.

As to `CN(C)c1ccc(Nc2ccc3cccc(Cl)c3n2)cc1` [Compound 75, 4-N-(8-chloroquinolin-2-yl)-1-N,1-N-dimethylbenzene-1,4-diamine], the “Inhibition … from different donors” value is listed as 6 out of 7 donnors.

For the next test, the system named is LMNA aberrant splicing (MutLMNA-luc cell line). Put plainly: Luciferase assay for repression of LMNA aberrant splicing in stable 293 MutLMNA-luc cell line (293FLP LMNA LUC cells #8). In kind it is cell-based. The following applies: 48 hours, compared to control untreated MutLMNA-luc cell line, read-out: Increase of luciferase activity. The text has this: Advantage has been taken of the luciferase system. The luciferase assay is an extremely sensitive and rapid assay. Linear results are seen over at least eight orders of magnitude of enzyme concentration. Moreover, the luciferase assay is well suited for high-throughput applications. To conduct a Mid-throughput screening (MTS) for compounds repressing LMNA aberrant splicing, we have constructed a plasmid in which exon 11, intron 11 and part of exon 12 of LMNA gene were fused with luciferase cDNA (FIG. 2). Both wild type (WtLMNA-luc)(SEQ ID NO: 1) and mutant (MutLMNA-luc)(SEQ ID NO: 2) substrate harbouring exon 11 mutation have been constructed. In these constructs we have generated a single initiation codon in exon 11 such as correct splicing will lead to luciferase expression, while aberrant splicing will skip the initiation codon and thereby prevent luciferase expression. After transfection in HeLa cells, Luciferase assays (FIG. 2B) and RT-PCR (FIG. 2C) indicate that WtLMNA-luc produces predominantly wild type splicing and large amount of luciferase activity, whereas MutLMNA-luc recapitulate the aberrant splicing profile with reduced luciferase expression (FIGS. 2 B and C, compare Wt and Mut). In order to use this system in MTS, we have generated a stable 293 cell lines containing a single integrated copy of luciferase reporter containing LMNA mutation (MutLMNA-luc cell line) using the flp system from INVITROGEN. This system allows us to perform a MTS for compounds able to enhance luciferase activity.
LMNA sequences (1278 bp of exon 11, intron 11 and 46 bp of […]) were PCR-amplified from either control or patient's cells genomic DNA with specific primer PCR fragments were purified with Concert Rapid PCR purification system (Invitrogen) and subcloned at the BamHI and EcoRI restriction sites of the pSppβm3 S1 plasmid containing the βGlobin cassette (Labourier et al., 1999—Recognition of exonic splicing enhancer sequences by the Drosophila splicing repressor RSF1. Nucleic Acids Res. 27, 2377-2386) to give the βGlo3S1LMNAwt and βGlo3S1LMNAmut constructs. The chimeric (3Glo-LMNA sequences were then inserted into the pcDNA3.1D/V5-His-TOPO vector (Invitrogen) to be used in transfection and in vitro splicing experiments. A single initiation codon ATG was kept in exon 11 of LMNA and LMNA sequences described above were fused at their 3′ end to Fyrefly luciferase cDNA (LMNAlucWT) in order that removal of intron 11 generates a transcript that encode a fusion protein harbouring luciferase activity, whereas usage of the cryptic splice site of mutated exon 11 (LMNAlucMut) will remove the initiation codon preventing luciferase expression. Both sequences were cloned in pcDNA3 Flp-In vector (Invitrogen).
A stable 293 cell line containing a single copy of LMNAlucMut minigene was obtained using the Flp-In system from (Invitrogen) according to manufacture procedure. Several clones were obtained and only one clone was used to screen the whole chemical library (293FLP LMNA LUC cells #8).
In a 96 Well Plate sterile, V-shape one put […] of drug compounds at 50 mM and then add 49.5 μl of 10% DMSO.
One pipets […] of drug at 500 μM and adds 200 μL of DMEM+Hygromycin B. At this stage the concentration of drug compound is 10 μM. One shares out 100 μl in a 96 Well Microplate sterile, flat bottom (further called luciferase plate) and 50 μl in other one (further called toxicity plate).
One washes 293FLP LMNA LUC cells once with D-PBS then adds 1 ml trypsin EDTA. Incubation at 37° C. for 2-3 minutes is proceeded. Then one adds 9 ml DMEM (with 10% FCS, P/S).
Cell concentration is brought at 10^5 cells per ml with DMEM+Hygromycin B to have 10^4 cells per 100 μl.
100 μl of suspension cells is added (at 10^4 cells per 100 μl) so final concentration of compounds is […].
Medium of the wells is gently removed then washed once by adding slowly 150 μl of D-PBS 1×. D-PBS is removed. 40 μl of PLB 1× is added and incubated at RT for 30 minutes. […]
With `Cc1cccc(Nc2ccc3cccc(Cl)c3n2)n1` [Compound 18, 8-chloro-N-(6-methylpyridin-2-yl)quinolin-2-amine], the fold induction at 5 µM was 2.85.

As for `Cc1ccc(Nc2ccc3ncccc3c2)nc1` [Compound 107, N-(5-methylpyridin-2-yl)quinolin-6-amine], the fold induction at 5 µM is 2.2.

In the case of `c1cnc(Nc2cnc3ccccc3n2)nc1` [Compound 142, N-(pyrimidin-2-yl)quinoxalin-2-amine], the fold induction at 5 µM amounted to 4.47.
